Data on two compounds can be found in patent US6841682B2, “Heterocycles useful in the treatment of benign prostatic hyperplasia” (Janseen Pharmaceutica N.V., priority 1997, dated 2005).

Molecules are shown by their SMILES.

One experiment deals with T1, α1b-AR (Homo sapiens, UniProt P35368).
T1 construct: expressed in transfected cells; host or cells: COS cells (pcDNA3 vector, DEAE-dextran transient transfection); membrane preparation
T1 sequence (P35368 1-520): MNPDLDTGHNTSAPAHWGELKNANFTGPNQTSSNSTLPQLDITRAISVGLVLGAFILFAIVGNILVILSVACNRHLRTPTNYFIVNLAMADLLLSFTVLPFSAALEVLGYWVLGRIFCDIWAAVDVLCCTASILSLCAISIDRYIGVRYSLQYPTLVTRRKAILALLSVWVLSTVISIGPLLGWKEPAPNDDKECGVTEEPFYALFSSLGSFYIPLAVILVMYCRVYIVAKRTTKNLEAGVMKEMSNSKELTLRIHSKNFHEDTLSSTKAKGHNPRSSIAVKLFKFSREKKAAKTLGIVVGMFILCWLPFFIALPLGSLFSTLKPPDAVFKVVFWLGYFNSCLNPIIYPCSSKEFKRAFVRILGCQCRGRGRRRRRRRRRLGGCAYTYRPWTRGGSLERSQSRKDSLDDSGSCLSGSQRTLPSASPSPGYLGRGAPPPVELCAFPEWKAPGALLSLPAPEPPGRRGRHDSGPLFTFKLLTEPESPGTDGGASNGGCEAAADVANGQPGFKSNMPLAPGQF
Put plainly: radioligand ([125I]-HEAT) receptor binding assay, COS cell membranes, α1b-AR. As to conditions: Tables A-J; [125I]-HEAT 50 pM, COS membranes; read-out: α1b IC50. The source says: (§1) The first assay tested the ability of compounds of Formula I to bind to membrane bound receptors α1a-AR, α1b-AR and α1d-AR.
(§2) The DNA sequences of the three cloned human α1-AR subtypes have been published. […] We used published DNA sequence information to design-primers for use in RT-PCR amplification of each subtype to obtain cloned cDNAs. Human poly A+ RNA was obtained from commercially available sources and included hippocampus and prostate samples, sources which have been cited in the literature. For the primary screen a radio ligand binding assay was used which employed membrane preparations from cells expressing the individual cloned receptor cDNAs. Radiolabeled ligands with binding activity on all three subtypes (non-selective) are commercially available ([125I]-HEAT, [3H]-prazosin).
(§3) Each α1 receptor subtype was cloned from poly A+ RNA by the standard method of reverse transcription-polymerase chain reaction (RT-PCR). The following sources of polyA+ RNA were used for the cloning of the al receptor subtypes: α1a-AR, human hippocampus and prostate, α1b-AR, human hippocampus, α1d-AR, human hippocampus. The resulting cDNAs were cloned into the pcDNA3 mammalian expression vector (Invitrogen Corp., San Diego Calif.). Each DNA was sequenced for verification and to detect any possible mutations introduced during the amplification process. Any deviation in sequence from the published consensus for each receptor subtype was corrected by site-directed mutagenesis.
(§4) The three α1-AR subtypes (a, b, d) were transfected into COS cells using a standard DEAE-dextran procedure with a chloroquine shock. In this procedure, each tissue culture dish (100 mm) was inoculated with 3.5×10^6 cells and transfected with 10 μg of DNA. Approximately 72 hours post-transfection, the cells were harvested and COS membranes were prepared. Transfected COS cells from 25 plates (100 mm) were scraped and suspended in 15 mL of TE buffer (50 mM Tris-HCl, 5 mM EDTA, pH7.4). The suspension was disrupted with a homogenizer. It was then centrifuged at 1000×g for 10 minutes at 4° C. The supernatant was centrifuged at 34,500×g for 20 minutes at 4° C. The pellet was resuspended in 5 mL TNE buffer (50 mM Tris-HCl, 5 mM EDTA, 150 mM NaCl, pH7.4). The resulting membrane preparation was aliquoted and stored at −70° C. The protein concentration was determined following membrane solubilization with TritonX-100.
(§5) The ability of each compound to bind to each of the α1-AR subtypes was assessed in a receptor binding assay. [125I]-HEAT, a non-selective α1-AR ligand, was used as the radiolabeled ligand. Each well of a 96-well plate received: 140 μL TNE, 25 μL [125I]-HEAT diluted in TNE (50,000 cpm; final concentration 50 pM), 10 μL test compound diluted in DMSO (final concentration 1 pM-10 μM), […] COS cell membrane preparation expressing one of the three α1-AR subtypes (0.05-0.2 mg membrane protein). The plate was incubated for 1 hour at room temperature and the reaction mixtures were filtered through a Packard GF/C Unifilter filter plate. The filter plate was dried for 1 hour in a vacuum oven. Scintillation fluid ([…]) was added to each well, and the filter plate was counted in a Packard Topcount scintillation counter. Data was analyzed using GraphPad Prism software.
(§6) Tables A-J list the IC50 values expressed in nanomolar concentration for select compounds of the invention in all receptor subtypes.

The target of another experiment is T2, α1d-AR (Homo sapiens, UniProt P25100).
T2 construct: expressed in transfected cells; host or cells: COS cells (pcDNA3 vector, DEAE-dextran transient transfection); membrane preparation
T2 sequence (P25100 1-572): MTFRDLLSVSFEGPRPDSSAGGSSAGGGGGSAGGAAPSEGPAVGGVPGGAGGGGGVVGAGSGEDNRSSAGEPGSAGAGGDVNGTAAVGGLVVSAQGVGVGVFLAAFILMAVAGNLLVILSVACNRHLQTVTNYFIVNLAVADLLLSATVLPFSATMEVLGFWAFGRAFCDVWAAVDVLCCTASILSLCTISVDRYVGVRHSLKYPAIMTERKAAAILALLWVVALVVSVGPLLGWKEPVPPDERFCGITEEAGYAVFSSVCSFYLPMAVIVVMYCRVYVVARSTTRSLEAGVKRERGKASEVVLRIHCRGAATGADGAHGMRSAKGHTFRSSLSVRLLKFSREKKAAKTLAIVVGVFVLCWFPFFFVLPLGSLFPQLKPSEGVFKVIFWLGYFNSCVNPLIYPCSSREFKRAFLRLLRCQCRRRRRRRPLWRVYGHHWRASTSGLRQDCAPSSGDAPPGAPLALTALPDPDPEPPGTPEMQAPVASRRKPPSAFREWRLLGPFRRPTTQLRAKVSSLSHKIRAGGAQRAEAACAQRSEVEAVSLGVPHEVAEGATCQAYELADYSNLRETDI
Briefly: radioligand ([125I]-HEAT) receptor binding assay, COS cell membranes, α1d-AR. As to conditions: Tables A-J, [125I]-HEAT 50 pM.
Description: as §1, §2, §3, §4, §5, §6

In another experiment the test system is rat aorta tissues. Briefly: norepinephrine-induced contractile response of rat aorta tissue. The experiment is classed as tissue-based. As to conditions: rat aortic rings, 37° C., pH 7.4, read-out: IC50, inhibition of contractile response in aortic tissue. An excerpt:
The contractile responses of rat prostatic tissue and rat aorta tissues were examined in the presence and absence of antagonist compounds. As an indication of the selectivity of antagonism, test compound effects on vascular smooth muscle contractility (α1b-AR and α1d-AR) were compared to the effects on prostatic smooth muscle (α1a-AR). Strips of prostatic tissue and aortic rings were obtained from Long Evans derived male rats weighing 275 grams and sacrificed by cervical dislocation. The prostate tissue was placed under 1 gram tension in a 10 ml bath containing phosphate buffered saline pH 7.4 at 32° C. and isometric tension was measured with force transducers. The aortic tissue was placed under 2 grams tension in a 10 ml bath containing phosphate buffered saline pH 7.4 at 37° C. The ability of test compound to reduce the norepinephrine-induced contractile response by 50% (IC50) was determined.

Usually IC50 stands for the midpoint of a concentration-inhibition curve. `CC(C)Oc1ccccc1N1CCN(Cc2cc(CN3CCCCC3=O)n[nH]2)CC1` [Compound 3]: the results for the IC50 on α1b-AR, at α1d-AR and in the experiment with rat aorta tissues were 3.92 µM, 0.177 µM and 31.9 µM, respectively.
As to `CC(C)Oc1ccccc1N1CCN(Cc2ncc(CN3CCCCC3=O)s2)CC1` [Compound 16], the values for the IC50 on α1b-AR, on α1d-AR and in the experiment with rat aorta tissues were 8.5 µM, 0.211 µM and 13.5 µM, respectively.
